In patent US20230076527A1, “TREATMENT OF PAROXYSMAL NOCTURNAL HEMOGLOBINURIA” (Apellis Pharmaceuticals, Inc., priority 2020, published 2023):

How the values were obtained:
patients with PNH [1] = assay: PEGASUS quality of life assessments (LASA, EORTC QLQ-C30); assay type: in vivo, human
Protocol: QoL assessments were Linear Analog Scale Assessment (LASA) and the European Organisation for Research and Treatment of Cancer Quality of Life Questionnaire-Core 30 Scale (EORTC QLQ-C30) scores. Change from baseline (CFB) to week 16 was analyzed using a mixed model for repeated measures. The LASA consists of 3 sections asking respondents to rate their perceived level of functioning and contains specific domains for activity level, ability to carry out daily activities, and overall QoL. Each section of the LASA is scored from low of 0 to high of 100 and asks patients to rate different aspects of their life over the past week; section 1 asks patients to rate their energy level, section 2 their ability to do daily activities, section 3 their overall quality of life. Scores for the 3 individual components of the scale and the combined score were included in the analysis. The EORTC contains 30 questions comprising 5 functional scale scores and individual items; it asks patients to answer 28 questions on a scale of 1 (“not at all”) to 4 (“very much”) that generally focus on the past week of their life. An additional 2 questions are rated on a scale of 1 (“very poor”) to 7 (“excellent”) for overall health and quality of life over the past week.

patients with PNH [2] = assay: PEGASUS safety, 16-week randomized controlled period
Protocol: Pharmacokinetics and pharmacodynamics were also assessed, including change from baseline in percentage of PNH Type II + III RBCs at week 16, and change from baseline in percentage of PNH Type II + III RBCs opsonized with C3 at week 16. Incidence and severity of treatment-emergent adverse events (TEAEs), incidence of thromboembolic events, changes from baseline in laboratory parameters, and changes from baseline in electrocardiogram (ECG) parameters were also assessed.
The primary endpoint was assessed on ITT set (included all subjects who were randomized), and change from Baseline to Week 16 in Hb level was measured. […] Safety Analysis was conducted in the safety set (which included all subjects who were randomized and received at least 1 dose of monotherapy Study Drug).
Subjects were divided into various sets. The Run-in Set included all subjects who received at least one dose of APL-2. The Intent-to-Treat (ITT) Set included all subjects who were randomized. The analyses using this set was based upon the randomized treatment group allocated. The Safety Set included all subjects who were randomized and received at least 1 dose of monotherapy Study Drug. This set was used for safety analyses. The analyses using this set were based upon the actual treatment received. The Modified ITT (mITT) Set included all subjects in the ITT set who received at least one dose of monotherapy beyond their Week 4 after randomization in the Randomized Controlled Period. The analyses using this set were based upon the randomized treatment group allocated. […] Subjects were required to receive their randomized treatment to be included in the set and so analyses using this set were by default based upon the actual treatment group allocated. The Completer Set consisted of all subjects in the ITT set who completed the Week 16 efficacy assessment for the study. The analyses using this set were based upon the randomized treatment group allocated.

[3] = change from baseline at week 16, ITT
[4] = change from baseline at week 16, ITT, listed as Pegcetacoplan
[5] = week 16, ITT, negative = improvement
[6] = 16-week randomized, controlled treatment period

In the case of “Poly(oxy-1,2-ethanediyl), α-hydro-ω-hydroxy-, 15,15ʹ -diester with N-acetyl-L-isoleucyl-L-cysteinyl-L-valyl-1-methyl-L-tryptophyl-L-glutaminyl-L-α-aspartyl-L-tryptophylglycyl-L-alanyl-L-histidyl-L-arginyl-L-cysteinyl-L-threonyl-2-[2-(2-aminoethoxy)ethoxy]acetyl-N^6-carboxy-L-lysinamide cyclic (2-->12)-(disulfide) [pegcetacoplan]”, the “Appetite loss, Difference (95% CI) in LS mean, pegcetacoplan vs eculizumab” value (patients with PNH [1]; [3]) is reported as -8.0 (-23.2, 7.3), the “Cognitive functioning, Difference (95% CI) in LS mean, pegcetacoplan vs eculizumab” value (patients with PNH [1]; [3]) is reported as 9.6 (-4.5, 23.6) and the “Constipation, Difference (95% CI) in LS mean, pegcetacoplan vs eculizumab” value (patients with PNH [1]; [3]) is reported as 1.8 (-15.7, 19.3). The “Diarrhea, Difference (95% CI) in LS mean, pegcetacoplan vs eculizumab” value (patients with PNH [1]; [3]) was -1.4 (-19.3, 16.5), the “Dyspnea, Difference (95% CI) in LS mean, pegcetacoplan vs eculizumab” value (patients with PNH [1]; [3]) was -14.6 and the “Emotional functioning, Difference (95% CI) in LS mean, pegcetacoplan vs eculizumab” value (patients with PNH [1]; [3]) was 4.1 (-11.6, 19.8). For the same substance, the “Fatigue symptom scale, Difference (95% CI) in LS mean, pegcetacoplan vs eculizumab” value (patients with PNH [1]; [3]) was -20.7, the “Financial difficulties, Difference (95% CI) in LS mean, pegcetacoplan vs eculizumab” value (patients with PNH [1]; [3]) was -7.4 (-21.8, 7.0) and the “Global Health Status/QoL, Difference (95% CI) in LS mean, pegcetacoplan vs eculizumab” value (patients with PNH [1]; [3]) was 18.6 (0.1, 37.1). The “Insomnia, Difference (95% CI) in LS mean, pegcetacoplan vs eculizumab” value (patients with PNH [1]; [3]) was 0.3 (-15.7, 16.3), the “Nausea and vomiting, Difference (95% CI) in LS mean, pegcetacoplan vs eculizumab” value (patients with PNH [1]; [3]) was -0.0 (-8.4, 8.4) and the “Pain, Difference (95% CI) in LS mean, pegcetacoplan vs eculizumab” value (patients with PNH [1]; [3]) was -2.8 (-20.4, 14.9). For the same substance, the “Physical functioning, Difference (95% CI) in LS mean, pegcetacoplan vs eculizumab” value (patients with PNH [1]; [3]) was 12.9 (4.9, 20.9), the “Role functioning, Difference (95% CI) in LS mean, pegcetacoplan vs eculizumab” value (patients with PNH [1]; [3]) was 24.4 (8.8, 40.0) and the “Social functioning, Difference (95% CI) in LS mean, pegcetacoplan vs eculizumab” value (patients with PNH [1]; [3]) was 11.3 (-2.4, 24.9). For the same substance, the “LASA score, Difference (95% CI) in LS mean, pegcetacoplan vs eculizumab” value (patients with PNH [1]; change from baseline at week 16, ITT, censored for transfusion) was 59.10, the “LASA score, Difference (95% CI) in LS mean, pegcetacoplan vs eculizumab” value (patients with PNH [1]; change from baseline at week 16, ITT, censored for transfusion, listed as Pegcetacoplan) was 59.1 (16.9, 101.3) and the “Dyspnea, Difference (95% CI) in LS mean, pegcetacoplan vs eculizumab” value (patients with PNH [1]; [4]) was -14.6 (-29.9, 0.8). The “Fatigue symptom scale, Difference (95% CI) in LS mean, pegcetacoplan vs eculizumab” value (patients with PNH [1]; [4]) was -20.7 (-35.3, -6.2), the “EORTC QLQ-C30 Cognitive functioning, LS mean (SE) change from baseline” value (patients with PNH [1]; week 16, ITT) was 5.8 (3.3) and the “EORTC QLQ-C30 Emotional functioning, LS mean (SE) change from baseline” value (patients with PNH [1]; week 16, ITT) was 8.0 (3.4). The “EORTC QLQ-C30 Global Health Status/QoL, LS mean (SE) change from baseline” value (patients with PNH [1]; week 16, ITT) was 15.9 (3.6), the “EORTC QLQ-C30 Physical functioning, LS mean (SE) change from baseline” value (patients with PNH [1]; week 16, ITT) was 16.9 (2.1) and the “EORTC QLQ-C30 Role functioning, LS mean (SE) change from baseline” value (patients with PNH [1]; week 16, ITT) was 15.4 (3.9). The “EORTC QLQ-C30 Social functioning, LS mean (SE) change from baseline” value (patients with PNH [1]; week 16, ITT) was 15.1 (2.9), the “LASA score, LS mean (SE) change from baseline” value (patients with PNH [1]; week 16, ITT, censored for transfusion) was 49.4 (10.2) and the “EORTC QLQ-C30 Appetite loss, LS mean (SE) change from baseline” value (patients with PNH [1]; [5]) was -3.8 (3.4). For the same substance, the “EORTC QLQ-C30 Constipation, LS mean (SE) change from baseline” value (patients with PNH [1]; [5]) was 3.0 (3.2), the “EORTC QLQ-C30 Diarrhea, LS mean (SE) change from baseline” value (patients with PNH [1]; [5]) was 0.3 (3.7) and the “EORTC QLQ-C30 Dyspnea, LS mean (SE) change from baseline” value (patients with PNH [1]; [5]) was -20.1 (3.5). For the same substance, the “EORTC QLQ-C30 Fatigue symptom scale, LS mean (SE) change from baseline” value (patients with PNH [1]; [5]) was -22.9 (3.3), the “EORTC QLQ-C30 Financial difficulties, LS mean (SE) change from baseline” value (patients with PNH [1]; [5]) was -6.8 (3.9) and the “EORTC QLQ-C30 Insomnia, LS mean (SE) change from baseline” value (patients with PNH [1]; [5]) was -9.2 (4.0). The “EORTC QLQ-C30 Nausea and vomiting, LS mean (SE) change from baseline” value (patients with PNH [1]; [5]) was -0.3 (1.6), the “EORTC QLQ-C30 Pain, LS mean (SE) change from baseline” value (patients with PNH [1]; [5]) was -0.7 (4.3) and the “LDH increase in subjects discontinuing due to hemolysis” value (patients with PNH [2]; 3 subjects of the pegcetacoplan group) was 3-11 × ULN. For the same substance, the “hemolysis (adverse event)” value (patients with PNH [2]; 16-week period, four patients pegcetacoplan, nine patients eculizumab) was 9.8%, the “patients who experienced a serious adverse event” value (patients with PNH [2]; 16-week period, seven of 41 pegcetacoplan, 6 of 39 eculizumab) was 17.1% and the “Abdominal Pain (adverse event)” value (patients with PNH [2]; 16-week randomized period) was 5 (12.2) n(%). The “Any TEAE” value (patients with PNH [2]; 16-week randomized period) was 36 (87.8) n(%), the “Back Pain (adverse event)” value (patients with PNH [2]; 16-week randomized period) was 3 (7.3) n(%) and the “Diarrhea (adverse event)” value (patients with PNH [2]; 16-week randomized period) was 9 (22.0) n(%). For the same substance, the “Discontinuations due to AE” value (patients with PNH [2]; 16-week randomized period) was 3 (7.3) n(%), the “Dizziness (adverse event)” value (patients with PNH [2]; 16-week randomized period) was 1 (2.4) n(%) and the “Headache (adverse event)” value (patients with PNH [2]; 16-week randomized period) was 3 (7.3) n(%). The Meningitis (patients with PNH [2]; 16-week randomized period) was 0 n(%), the “Serious AE” value (patients with PNH [2]; 16-week randomized period) was 7 (17.1) n(%) and the cases of meningitis (patients with PNH [2]; 16-week randomized period) was “No cases”. For the same substance, the deaths (patients with PNH [2]; 16-week randomized period) was “no deaths”, the “fatigue (adverse event)” value (patients with PNH [2]; 16-week randomized period) was 2 (4.9) n(%) and the “hemolysis (adverse event)” value (patients with PNH [2]; 16-week randomized period) was 4 (9.8) n(%). For the same substance, the “injection site reactions” value (patients with PNH [2]; 16-week randomized period) was 15 (35.6) n(%), the tolerability (patients with PNH [2]; 16-week randomized period) was “generally well tolerated” and the diarrhea (patients with PNH [2]; [6]) was 22.0%. For the same substance, the “fatigue (adverse event)” value (patients with PNH [2]; [6]) was 4.9%, the headache (patients with PNH [2]; [6]) was 7.3% and the injection site reactions (patients with PNH [2]; [6]) was 36.6%. The “Adverse Events as primary reason for withdrawal from study treatment (all reported as hemolysis)” value (patients with PNH [2]; through week 16) was 3 (7.3) n (%).
